Measured values as given in PubChem BioAssay (NCI).
Values joined by “and” are separate entries in the source; they are usually repeats but may differ in a detail not shown here. Equal values may be shown once.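 How tested: cells in 96-well plates exposed to compound for 48 hours at five concentrations. At the GI50, growth is halved. At the TGI there is no net growth.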

System: MDA-MB-468 breast
Assay: growth of human tumour cells (NCI), 48 h

For `CC(=O)c1cc(C(=O)c2ccc3c(c2)Sc2ccccc2N3)n2ccccc12`, the GI50 was 2.56 nM and 3.32 nM.
`Cc1cc(Nc2cc(N3CCN(C)CC3)nc(/C=C/c3ccccc3)n2)n[nH]1` showed a GI50 of 590 nM and a TGI of 2440 nM.
For `N#Cc1cnc(Nc2cc(NC[C@H]3CNCCO3)c(C(F)(F)F)cn2)cn1`, the GI50 was 16400 nM and the TGI was 37400 nM.
`Cn1cc(-c2cnn3c(N)c(Br)c(C4CCCNC4)nc23)cn1` (stereo not given) was tested, and the GI50 was 11100 nM and the TGI was 44100 nM.
With `CN1CCN(Cc2ccc(NC(=O)c3cncc(C#Cc4cnc(N)c5cccnc45)c3)cc2C(F)(F)F)CC1` the GI50 was 698 nM and the TGI was > 50000 nM.
With `CN1CCN(C(=O)COc2ccc(/C=C3\CC4C5CC=C6CC(Cl)CCC6(C)C5CCC4(C)C3=O)cc2)CC1` (stereo not given) the GI50 was 6030 nM and the TGI was > 100000 nM.
Work on `CC(=O)C1=C(O)C=C2Oc3c(C(=O)/C=C/c4cc(Cl)cc(Cl)c4)c(O)c(C)c(O)c3[C@]2(C)C1=O` yielded a GI50 of 529 nM and a TGI of 1340 nM.
Molecule `Cc1cc(Nc2nc(N[C@@H](C)c3ncc(F)cn3)ncc2Cl)n[nH]1` has a GI50 of 18200 nM and a TGI of 52100 nM.
With `COc1ccc([C@@]23Oc4cc(OC)cc(OC)c4[C@]2(O)[C@H](O)[C@H](C(N)=O)[C@H]3c2ccccc2)cc1` the GI50 was < 10 nM and the TGI was 45.8 nM.
`COc1cc(C2c3cc4c(cc3C(OC(=O)C[n+]3ccccc3)C3COC(=O)C23)OCO4)cc(OC)c1OC` (stereo not given) was tested, and the GI50 was 24.2 nM and the TGI was 77.7 nM.
With `COc1cc(C(=O)c2cnc(-c3cccc4[nH]ccc34)[nH]2)cc(OC)c1OC` the GI50 was 64.6 nM and < 10 nM and the TGI was 88700 nM.
Molecule `CC[C@@H](C)/C=C(C)/C=C/C(=O)c1c(O)c(-c2ccc(O)cc2)cn(O)c1=O` has a GI50 of 167 nM and a TGI of 624 nM.
With `CC(=O)[C@H]1CCC/C=C/[C@@H]2C[C@H](O)C[C@H]2[C@H](O)/C=C/C(=O)O1` the GI50 was 159 nM and the TGI was 687 nM.
For `CSc1nc2c(c(=O)n1C)CN(C1CCCCC1)C(=O)C(c1ccccc1)N2` (stereo not given), the GI50 was 52200 nM and the TGI was > 100000 nM.
Molecule `CCNC(=O)Oc1ccc(/C(=C(/C)Cc2ccc(OC)cc2)c2ccc(OCCN(CC)CC)cc2)cc1` has a GI50 of 1630 nM and a TGI of 3460 nM.
In the case of `CCN(CC)CCCC(C)N/C(=C1\C(=O)NC(=O)\C1=C(/NC(C)CCCN(CC)CC)c1cccc(OC)c1)c1cccc(OC)c1` (stereo not given), the GI50 is reported as 762 nM and the TGI is reported as 1750 nM.
For `CCCCCCCC/C=C/CCCCCCCC1=NC(C)(C)CN1CCO`, the GI50 was 1670 nM and the TGI was 3210 nM.
With `Cc1cc(C)c(-c2c(N)cc(Br)cc2Br)c(N)c1` the GI50 was 2240 nM and the TGI was 5760 nM.
`Cc1cc(-c2cc(O)ccc2Cl)cc2nnc(Nc3ccc(OCCN4CCCC4)cc3)nc12` was tested, and the GI50 was 583 nM and the TGI was 2040 nM.
`C#CCN(c1ccc(C(=O)N[C@@H](CCC(=O)N[C@H](CCC(=O)O)C(=O)O)C(=O)O)cc1)C1CCc2cc3nc(CO)[nH]c(=O)c3cc21` (stereo not given in full) was tested, and the GI50 was > 23100 nM and the TGI was > 100000 nM.
`CCN(Cc1cccc(Cl)c1)c1ccc(CO)c(Cl)c1` was tested, and the GI50 was 25 nM and the TGI was 81.7 nM.
`Clc1ccccc1-c1nnc2c(Cc3ccccc3)nc3ccccc3n12` was tested, and the GI50 was 5240 nM and the TGI was > 100000 nM.
`Cc1cc2c(-c3nc4ccccn4c3N)c(O)c(O)cc2c(O)c1-c1c(C)cc2c(-c3nc4ccccn4c3N)c(O)c(O)cc2c1O` was tested, and the GI50 was 538 nM and the TGI was 3520 nM.
Molecule `CCOc1ccn(-c2ccc(F)cc2)c(=O)c1C(=O)Nc1ccc(Oc2ccnc(N)c2Cl)c(F)c1` has a GI50 of 5700 nM and a TGI of 34800 nM.
In the case of `CO[C@H]1CC(O[C@@H]2/C(C)=C/C[C@@H]3C[C@@H](C[C@]4(CC[C@H](C)[C@@H](C5CCCCC5)O4)O3)OC(=O)[C@@H]3C=C(C)/C(=N/O)[C@H]4OC/C(=C\C=C\[C@@H]2C)[C@]43O)O[C@@H](C)C1O` (stereo not given in full), the GI50 is reported as 793 nM and the TGI is reported as 1760 nM.
With `O=S(=O)(Nc1ccc(I)c(Cl)c1)c1ccc(-c2cnc(C3CC3)o2)cc1` the GI50 was 314 nM and the TGI was 2650 nM.
Molecule `O=[N+]([O-])c1cc([N+](=O)[O-])c(Nn2c3ccccc3c3ccccc32)c([N+](=O)[O-])c1` has a GI50 of 274 nM and a TGI of 782 nM.
For `CN1C(=O)[C@]23SSC1(C)C(=O)N2[C@H]1Nc2ccccc2C1([C@@]12c4ccccc4N[C@@H]1N1C(=O)C4(C)SS[C@]1(C(=O)N4C)[C@H]2O)[C@@H]3O` (stereo not given in full), the GI50 was 35.1 nM and 115 nM and the TGI was 103 nM and 322 nM.
